# Measurements taken from paper PMC8294059, “Identification and Immune Assessment of T Cell Epitopes in Five Plasmodium falciparum Blood Stage Antigens to Facilitate Vaccine Candidate Selection and Optimization” (Frontiers in Immunology, 2021).
# Where a SMILES comes first, the peptide text is derived from it.
# Molecular target: HLA-A*0201 (Homo sapiens, UniProt P04439, D140Y/D185E/D98H/E176V/E277Q/G131W/G231S/I119V/I121R/I166T/I218V/L300P/L318F/N151K/N90K/P208A/P217A/Q86G/Q94H/R138H/R169H/T345S)
# Test: In vitro class I HLA binding assay (fluorescence polarization competition)
# Settings: allele A*0201; cell-free competition, fluorescence polarization at 72 hours; Non-binder = no dose-dependent inhibition; read-out: IC50
# Procedure: A cell-free class I HLA binding assay that allows for in vitro quantification of peptide-HLA binding affinity in a competition format was used. In this assay, a fluorescently labeled, high binding, control peptide is loaded onto 384-well ½-area plates along with unlabeled experimental peptides. To remove endogenous peptides and render the HLA A and B molecules receptive to binding, HLA is heated at 53°C for 15 minutes and immediately added to the assay. The mixture is then allowed to stand for three days. Once the mixture has reached steady equilibrium (at 72 hours), displacement of the high binding control peptide is measured through fluorescence polarization. Binding of experimental peptides is expressed as the percent inhibition of the labeled control peptide (experimental fluorescence / control fluorescence, multiplied by 100). The percent inhibition values for each experimental peptide (across a range of molar concentrations) are used to calculate the concentration which inhibits 50% of the labeled control peptide’s specific binding. This value is referred to as the peptide’s IC50.
row,SMILES,IC50 [nM]
1,CC[C@H](C)[C@H](NC(=O)[C@H](CC(C)C)NC(=O)[C@@H](N)CO)C(=O)N[C@@H](CCCCN)C(=O)N[C@@H](CCC(N)=O)C(=O)N[C@@H](CC(N)=O)C(=O)N[C@@H](CCCCN)C(=O)N[C@@H](Cc1ccc(O)cc1)C(=O)N[C@H](C(=O)O)C(C)C [EBA175_0116] (H-SLIKQNKYV-OH),29900
2,CC[C@H](C)[C@H](NC(=O)[C@@H](NC(=O)[C@H](CC(N)=O)NC(=O)[C@H](CC(=O)O)NC(=O)[C@H](CC(N)=O)NC(=O)CNC(=O)[C@H](CC(N)=O)NC(=O)[C@H](CC(C)C)NC(=O)[C@@H](NC(=O)[C@@H](N)CO)C(C)C)[C@@H](C)O)C(=O)O [EBA175_0436] (H-SVLNGNDNTI-OH),640000
3,CC[C@H](C)[C@H](NC(=O)[C@@H](NC(=O)[C@H](CC(N)=O)NC(=O)[C@H](CC(=O)O)NC(=O)[C@H](CC(N)=O)NC(=O)CNC(=O)[C@H](CC(N)=O)NC(=O)[C@H](CC(C)C)NC(=O)[C@@H](N)C(C)C)[C@@H](C)O)C(=O)O [EBA175_0437] (H-VLNGNDNTI-OH),7310
4,CC[C@H](C)[C@H](NC(=O)[C@H](CO)NC(=O)[C@H](CCCCN)NC(=O)[C@H](Cc1ccccc1)NC(=O)[C@H](CCC(=O)O)NC(=O)[C@H](CO)NC(=O)[C@H](Cc1ccc(O)cc1)NC(=O)[C@H](CCSC)NC(=O)[C@@H](N)CCCCN)C(=O)O [EBA175_0697] (H-KMYSEFKSI-OH),1020
5,CC(C)C[C@H](NC(=O)[C@H](CC(N)=O)NC(=O)[C@H](CC(=O)O)NC(=O)[C@@H](NC(=O)[C@@H](NC(=O)[C@H](CCC(=O)O)NC(=O)[C@H](Cc1ccccc1)NC(=O)[C@H](CC(C)C)NC(=O)[C@@H](N)Cc1ccccc1)C(C)C)[C@@H](C)O)C(=O)O [EBA175_1461] (H-FLFEVTDNL-OH),269

# Same assay, conditions: allele A*0201; fluorescence polarization competition; read-out: IC50 (nM), in vitro HLA binding affinity
row,SMILES,IC50 [nM]
1,CC[C@H](C)[C@H](NC(=O)[C@H](CCSC)NC(=O)[C@@H](N)CO)C(=O)N[C@@H](CCCCN)C(=O)N[C@@H](CO)C(=O)N[C@@H](C)C(=O)N[C@@H](Cc1ccccc1)C(=O)N[C@@H](CC(C)C)C(=O)N1CCC[C@H]1C(=O)N[C@H](C(=O)O)[C@@H](C)O [AMA1_373] (H-SMIKSAFLPT-OH),12500
2,CC(C)C[C@H](NC(=O)[C@@H](N)Cc1ccccc1)C(=O)N1CCC[C@H]1C(=O)N[C@H](C(=O)NCC(=O)N[C@@H](C)C(=O)N[C@@H](Cc1ccccc1)C(=O)N[C@@H](CCCCN)C(=O)N[C@@H](C)C(=O)O)[C@@H](C)O [AMA1_379] (H-FLPTGAFKA-OH),1390
3,CC[C@H](C)[C@H](NC(=O)[C@H](Cc1ccc(O)cc1)NC(=O)[C@H](CO)NC(=O)[C@H](CO)NC(=O)[C@H](CC(N)=O)NC(=O)[C@H](CC(N)=O)NC(=O)[C@@H](NC(=O)[C@H](CC(C)C)NC(=O)[C@@H](N)CS)[C@@H](C)CC)C(=O)O [AMA1_418] (H-CLINNSSYI-OH),3820
4,CC[C@H](C)[C@H](NC(=O)[C@@H](N)Cc1ccccc1)C(=O)N[C@@H](CO)C(=O)N[C@@H](CC(=O)O)C(=O)N[C@@H](CC(=O)O)C(=O)N[C@@H](CCCCN)C(=O)N[C@@H](CC(=O)O)C(=O)N[C@@H](CO)C(=O)N[C@@H](CC(C)C)C(=O)O [AMA1_480] (H-FISDDKDSL-OH),336000
5,CC[C@H](C)[C@H](NC(=O)[C@@H](NC(=O)[C@H](C)NC(=O)[C@H](CC(C)C)NC(=O)[C@@H](NC(=O)[C@H](C)N)C(C)C)[C@@H](C)O)C(=O)N[C@@H](CC(C)C)C(=O)N[C@@H](CCSC)C(=O)N[C@H](C(=O)O)C(C)C [AMA1_556] (H-AVLATILMV-OH),23600
6,CC(C)C[C@H](NC(=O)[C@H](Cc1ccccc1)NC(=O)[C@H](Cc1ccccc1)NC(=O)[C@H](Cc1ccc(O)cc1)NC(=O)[C@H](CCC(N)=O)NC(=O)[C@@H](NC(=O)CNC(=O)[C@H](CC(C)C)NC(=O)[C@@H](N)CCCCN)C(C)C)C(=O)O [CYRPA_220] (H-KLGVQYFFL-OH),805
7,CC[C@H](C)[C@H](NC(=O)[C@H](CC(N)=O)NC(=O)[C@H](CC(=O)O)NC(=O)CNC(=O)[C@@H](NC(=O)[C@@H](N)Cc1ccc(O)cc1)C(C)C)C(=O)N[C@@H](CC(N)=O)C(=O)N[C@@H](CC(N)=O)C(=O)N[C@H](C(=O)O)C(C)C [CYRPA_242] (H-YVGDNINNV-OH),1820
8,CC[C@H](C)[C@H](NC(=O)[C@H](CO)NC(=O)[C@H](CC(N)=O)NC(=O)[C@H](CCC(=O)O)NC(=O)[C@H](CC(N)=O)NC(=O)[C@H](CC(N)=O)NC(=O)[C@H](Cc1ccccc1)NC(=O)[C@H](Cc1ccccc1)NC(=O)[C@@H](NC(=O)[C@@H](N)Cc1ccc(O)cc1)[C@@H](C)CC)C(=O)O [CYRPA_304] (H-YIFFNNENSI-OH),2830
9,CC(C)C[C@H](NC(=O)CNC(=O)[C@H](CC(=O)O)NC(=O)[C@H](CC(N)=O)NC(=O)[C@@H](NC(=O)[C@H](CC(N)=O)NC(=O)[C@@H](NC(=O)[C@H](CC(N)=O)NC(=O)[C@H](CC(C)C)NC(=O)[C@@H](N)Cc1ccc(O)cc1)[C@@H](C)O)C(C)C)C(=O)O [RH5_86] (H-YLNTNVNDGL-OH),2830
10,CC(C)C[C@H](NC(=O)[C@H](CCC(=O)O)NC(=O)[C@H](CCCCN)NC(=O)[C@H](Cc1ccccc1)NC(=O)[C@H](Cc1c[nH]cn1)NC(=O)[C@H](Cc1ccc(O)cc1)NC(=O)[C@H](CCC(N)=O)NC(=O)[C@H](CC(C)C)NC(=O)[C@@H](N)Cc1ccccc1)C(=O)O [RH5_144] (H-FLQYHFKEL-OH),14600
11,CC[C@H](C)[C@H](NC(=O)[C@@H](N)CCCCN)C(=O)N[C@@H](CC(N)=O)C(=O)N[C@@H](CCC(=O)O)C(=O)N[C@H](C(=O)N[C@@H](Cc1ccc(O)cc1)C(=O)N[C@@H](CC(=O)O)C(=O)N[C@@H](CCCCN)C(=O)N[C@H](C(=O)O)C(C)C)[C@@H](C)O [RH5_212] (H-KINETYDKV-OH),10100
12,CC[C@H](C)[C@H](NC(=O)[C@H](CC(C)C)NC(=O)[C@H](CCCCN)NC(=O)[C@H](Cc1c[nH]cn1)NC(=O)[C@@H](NC(=O)[C@@H](N)Cc1ccc(O)cc1)[C@@H](C)CC)C(=O)N[C@@H](CC(C)C)C(=O)N[C@@H](CO)C(=O)N[C@H](C(=O)O)C(C)C [RH5_363] (H-YIHKLILSV-OH),1150
13,CC[C@H](C)[C@H](NC(=O)[C@H](Cc1ccccc1)NC(=O)[C@H](CCCCN)NC(=O)[C@@H](NC(=O)[C@@H](NC(=O)[C@H](CC(=O)O)NC(=O)[C@@H](NC(=O)[C@H](Cc1ccc(O)cc1)NC(=O)[C@@H](NC(=O)[C@@H](N)Cc1ccc(O)cc1)[C@@H](C)CC)[C@@H](C)CC)[C@@H](C)O)[C@@H](C)CC)C(=O)O [RH5_404] (H-YIYIDTIKFI-OH),53100
14,CC[C@H](C)[C@H](N)C(=O)N[C@@H](CC(C)C)C(=O)N[C@@H](CC(=O)O)C(=O)N[C@@H](CCSC)C(=O)N[C@@H](CO)C(=O)N[C@@H](CC(N)=O)C(=O)N[C@@H](CCC(=O)O)C(=O)N[C@@H](Cc1ccc(O)cc1)C(=O)N[C@@H](CO)C(=O)N[C@@H](CC(C)C)C(=O)O [RH5_459] (H-ILDMSNEYSL-OH),6870
15,CC[C@H](C)[C@H](NC(=O)[C@H](Cc1ccccc1)NC(=O)[C@H](CC(C)C)NC(=O)[C@@H](N)CO)C(=O)N[C@H](C(=O)N[C@@H](CO)C(=O)N[C@@H](CC(=O)O)C(=O)N[C@@H](Cc1c[nH]cn1)C(=O)N[C@@H](CC(C)C)C(=O)O)[C@@H](C)O [RH5_467] (H-SLFITSDHL-OH),7120
16,CSCC[C@H](NC(=O)[C@H](CCC(N)=O)NC(=O)[C@@H](N)CCCNC(=N)N)C(=O)N[C@@H](CC(C)C)C(=O)N[C@@H](Cc1ccc(O)cc1)C(=O)N[C@@H](CC(N)=O)C(=O)N[C@H](C(=O)N[C@@H](Cc1ccccc1)C(=O)N[C@@H](Cc1ccc(O)cc1)C(=O)N[C@@H](CO)C(=O)O)[C@@H](C)O [RH5_476] (H-RQMLYNTFYS-OH),319000
17,CC[C@H](C)[C@H](NC(=O)[C@H](CC(N)=O)NC(=O)[C@H](CC(N)=O)NC(=O)[C@H](CC(C)C)NC(=O)[C@@H](N)Cc1c[nH]cn1)C(=O)N[C@@H](Cc1ccccc1)C(=O)N[C@@H](Cc1c[nH]cn1)C(=O)N[C@@H](Cc1c[nH]cn1)C(=O)N[C@@H](CC(C)C)C(=O)O [RH5_489] (H-HLNNIFHHL-OH),225
18,CC[C@H](C)[C@H](NC(=O)[C@H](CC(C)C)NC(=O)[C@H](Cc1c[nH]cn1)NC(=O)[C@H](Cc1c[nH]cn1)NC(=O)[C@H](Cc1ccccc1)NC(=O)[C@@H](NC(=O)[C@@H](N)CC(N)=O)[C@@H](C)CC)C(=O)N[C@@H](Cc1ccc(O)cc1)C(=O)N[C@H](C(=O)O)C(C)C [RH5_492] (H-NIFHHLIYV-OH),2290
19,CC(C)C[C@H](NC(=O)[C@H](CO)NC(=O)[C@H](Cc1ccccc1)NC(=O)[C@@H](NC(=O)[C@H](CC(C)C)NC(=O)[C@@H](N)CCCCN)[C@@H](C)O)C(=O)N[C@@H](CC(=O)O)C(=O)N[C@@H](Cc1c[nH]cn1)C(=O)N[C@@H](CCCNC(=N)N)C(=O)N[C@H](C(=O)O)C(C)C [RIPR_0035] (H-KLTFSLDHRV-OH),8880
20,CC[C@H](C)[C@H](NC(=O)[C@H](CO)NC(=O)[C@H](C)NC(=O)[C@H](CC(=O)O)NC(=O)[C@H](CC(=O)O)NC(=O)[C@H](CC(N)=O)NC(=O)[C@H](Cc1ccc(O)cc1)NC(=O)[C@H](CCC(N)=O)NC(=O)[C@@H](N)Cc1ccccc1)C(=O)O [RIPR_0991] (H-FQYNDDASI-OH),275
21,CC[C@H](C)[C@H](NC(=O)[C@H](CCCCN)NC(=O)[C@H](Cc1c[nH]c2ccccc12)NC(=O)[C@@H](NC(=O)[C@@H](NC(=O)[C@H](CCC(N)=O)NC(=O)[C@H](CC(N)=O)NC(=O)[C@H](Cc1ccc(O)cc1)NC(=O)[C@@H](NC(=O)[C@@H](N)Cc1ccc(O)cc1)[C@@H](C)CC)[C@@H](C)CC)[C@@H](C)CC)C(=O)O [RIPR_1011] (H-YIYNQIIWKI-OH),1950
